From patent US9884816B2, “Sulforaphane-derived compounds, production method thereof and the medical, food and cosmetic use of same” (Consejo Superior De Investigaciones Científicas (CSIC), priority 2012, dated 2018) come the findings set out here.

The subject of test [1] is MRC-5 (fetal lung fibroblasts). Nature of the test: Cytotoxicity curve, MRC-5 cell line. The format is cell-based. To be noted: mean ± SEM, at least 3 independent experiments. How it is done:
(§1) FIG. 5. Curve of cytotoxicity of the compounds 15S, and 15R, at four different concentrations ([…]) in comparison with Sigma-Aldrich® sulphoraphane at five different concentrations ([…]) for the cell lines A-549 (human lung adenocarcinoma) and MRC-5 (fetal lung fibroblasts), showing IC50 for all the products in each of the cell lines used in the test, expressed as mean±standard error (SEM) of all the tests conducted. Each diagram represents at least 3 independent experiments and both within them and for each value of IC50, the result of statistical analysis is indicated for the t-test with the p-value. The t-test indicates whether two values have a significant difference from the statistical standpoint. A p-value above 0.05 is not regarded as statistically significant and is not represented by any symbol, a p-value below 0.05 indicates statistical significance and is indicated with an asterisk (*), and then if p is below 0.01 it is indicated with two asterisks, and with three if it is below 0.001.

The subject of test [2] is A-549 (human lung adenocarcinoma). Nature of the test: Cytotoxicity curve, A-549 cell line. To be noted: mean ± SEM, at least 3 independent experiments. The format is cell-based. The protocol:
as §1

As usually defined, the IC50 is the concentration needed to halve the response being measured. Read a low IC50 as greater potency. In the case of `C[S@@+]([O-])CCCCN=C=S` (racemic) [SF, (Rs)-1-isothiocyanato-4-(methylsulphinyl)-butane], the IC50 was 46.6 ± 2.19 µM in test [1] and 19.6 ± 2.27 µM in test [2].
As to `C[S+]([O-])CCCCN=C=S` (centres unmarked) [SF Sigma ®], the IC50 in test [1] came to 30.5 ± 2.02 µM; in test [2] it was 16.5 ± 3.05 µM.
On the same counts, the results for `C[S@+]([O-])CCOCCOCCN=C=S` [SF 15Ss, (S)-(+)-8-Isothiocyanato-3,6-dioxaoctanylmethyl sulphoxide] are 58.3 ± 6.54 µM and 22.7 ± 0.69 µM.
On the same counts, the results for “(R)-(−)-8-Isocyanato-3,6-dioxaoctanylmethyl sulphoxide [SF 15Rs]” are 67.3 ± 6.25 µM and 29.4 ± 3.89 µM.
